Measurements reported in the METLIN SMRT retention time set (Domingo-Almenara et al. 2019).

Assay: gradient 5% acetonitrile 3 min, to 50% in 2 min, to 85% in 15 min, held 3 min, 100 µL/min
Details: column: Zorbax Extend-C18 2.1 x 50 mm; eluents: water / acetonitrile, 0.1% formic acid
Summary of the method: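 A Zorbax Extend-C18 column (2.1 × 50 mm, 1.8 μm) run at 100 μL/min with water and acetonitrile, both containing 0.1% formic acid, separated mixtures of ~100 pure standards. The HPLC was coupled to a quadrupole time-of-flight mass spectrometer operated in positive and negative ionization mode, with dead and dwell volumes of 40 μL and 900 μL. Each retention time was taken from a computationally picked adduct peak that was then manually inspected.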

Compound	RP-LC retention time
Cc1ccc(C)c2sc(OC3CCN(C(=O)c4ccc(=O)n(C)n4)CC3)nc12	911 s
COc1ccc2c(c1O)-c1cccc3c1[C@@H](C2)N(C)CC3	643 s
CCOc1ccc(-n2cc(C(=O)OCC(=O)OC(C)C)c3ccccc3c2=O)cc1	1140 s
Cc1nn(C(C)C(=O)NCCCN2CCCC2=O)c(=O)c2nn(-c3ccccc3)c(C)c12 (stereo unspecified)	648 s
Cc1nc(CCNC(=O)C2CCN(S(=O)(=O)c3ccc(C4CCCCC4)cc3)CC2)cs1	981 s
O=C(CSCc1nc2cccnc2n1C1CCCCC1)NCCc1ccco1	883 s
CCn1cc(C(=O)NCc2ccccc2)c2cccnc21	782 s
COc1ccc(CNC(=O)C2CCCN(C(=O)c3[nH]c(C)c(C(=O)OC(C)C)c3C)C2)cc1 (stereo unspecified)	812 s
CCOc1ccc(CNC(=O)COc2nc(CC)nc3oc(C)c(C)c23)cc1	993 s
CC(=O)c1ccc(NC(=O)c2cnn(-c3ccc(Br)cc3)c2)cc1	948 s
COc1cccc(-c2noc(Cc3nnc(-c4ccc(C)c(F)c4)o3)n2)c1OC	1010 s
c1ccc(-c2noc(NCc3ccc4c(c3)OCO4)n2)cc1	974 s
O=C1CC(NC(=O)C2(c3ccc(Cl)cc3)CCCC2)CN1 (stereo unspecified)	678 s
COc1ccc(-c2noc(N3CCC(C(=O)NCCC4=CCCCC4)CC3)n2)cc1	1050 s
Cc1nn(C(C)C)c(C)c1S(=O)(=O)N1CCN(C(=O)c2ccsc2)CC1	775 s
COc1ccc(C2(c3nc(-c4cccc(-c5ccnn5C)c4)no3)CC2)cc1	1150 s
Cc1cnc(C2CCC2)n1CCNC(=O)C1(c2ccccc2)CC1	654 s
CCOc1ccccc1NC(=O)NCC(c1cccnc1)c1c[nH]c2ccccc12 (stereo unspecified)	684 s
CC(=O)N1C(=O)C2(NCC(C)N2)c2ccccc21 (stereo unspecified)	625 s
CCn1nccc1-c1cccc(-c2noc(-c3ccc(C)s3)n2)c1	1250 s
O=C(NCc1ccc2c(c1)OCO2)C1CCCN(c2nn3c(=O)c4c(nc3s2)CCCC4)C1 (stereo unspecified)	719 s
CCn1c(=O)c2ccn(CC(=O)Nc3ccc4c(c3)OCCO4)c2n(CC)c1=O	701 s
Cc1nc(CC(=O)NCc2ccccc2C(F)(F)F)sc1C(=O)NCC(C)C	847 s
CC(Cc1cc2c(c(C(N)=O)c1)N(CCCO)CC2)NCCOc1ccccc1OCC(F)(F)F (stereo unspecified)	654 s
CCOC(=O)C1=C(C)NC2=C(C(=O)C(C(=O)OC)C(C)C2)C1c1ccc(OC)cc1 (stereo unspecified)	860 s
CCOC(=O)c1[nH]c(C)c(C(=O)C(C)N(C(=O)c2ccc(F)cc2)C2CC2)c1C (stereo unspecified)	890 s
O=C(NC1CCCCC1)C1CCCN(S(=O)(=O)Cc2ccccc2Cl)C1 (stereo unspecified)	967 s

Compound	RP-LC retention time
CCC(Oc1ccc(Cl)cc1)C(=O)OC1CC2CCC(C1)N2C (stereo unspecified)	815 s
Cc1cc(Cl)ccc1S(=O)(=O)NCC1CN(C)CC12CCCCC2 (stereo unspecified)	713 s
COc1ncc(C(=O)NCCc2ccc(S(N)(=O)=O)cc2)cn1	608 s
CS(=O)(=O)Oc1ccc(Br)c2cccnc12	889 s
COc1nn(C)cc1C(=O)N1CCC(C(=O)NCC2CCCO2)CC1 (stereo unspecified)	553 s
Cc1nn(C)c(C)c1CCNC(=O)Nc1cccc(Br)c1	677 s
O=C(NCc1ccc(C(F)(F)F)cc1)C1CCCN(c2nccnc2Oc2ccccc2)C1 (stereo unspecified)	1040 s
Cc1ccc(S(=O)(=O)CCc2noc(C(=O)NCCc3ccc(S(N)(=O)=O)cc3)n2)cc1	724 s
CCOC(CNCc1cc(C)c2[nH]c3ccccc3c2c1C)OCC	812 s
COc1ccc(-c2nnc(-c3cccnc3NCCC3=CCCCC3)o2)cc1	1330 s
CNC(=O)c1c(C)nn(-c2ccccc2)c1-n1cccc1	761 s
CCCCN(C)Cc1nnn(-c2ccc(F)cc2)c1C	617 s
O=C(NC1CC1)[C@@H]1OCCN(C2CC2)[C@H]1c1ccccc1	572 s
CC(C)n1cnc2cc(CNC(=O)Cc3c[nH]c4ccccc34)ccc21	604 s
CC1CCN(c2ncc(S(=O)(=O)c3ccc(C(C)C)cc3)c(N)n2)CC1	1240 s
Cc1ccc(Cn2cc(-c3ccncc3)cc2C(=O)N(C)Cc2ccccc2)cc1	751 s
Cc1nnc2c(=O)n(CC(=O)NC(C)c3ccccc3)c3cccnc3n12 (stereo unspecified)	988 s
Cc1ccc(-c2nc(-c3cccc(-c4ccnn4C)c3)no2)cc1	1210 s
COc1ccc(C(=O)NCc2c(-c3ccccc3)nc3sc(C)nn23)cn1	774 s
CCCC(=O)Nc1nc(-c2ccccc2)c(-c2ccccc2)s1	1160 s
Fc1ccc(-c2nc3ccccc3[nH]2)cc1	557 s
C=CCNC(=O)c1cnn(-c2cc(-c3nc(C4CC4)no3)ccn2)c1C	895 s
CCOc1ccc([C@H]2N(c3cc(C)on3)C(=O)[C@@H]3CCCN32)cc1	743 s
CCNC(=O)C1CCc2sc(C(=O)N3CCCCCC3)cc2C1 (stereo unspecified)	748 s
CN(Cc1ccccc1)S(=O)(=O)c1cc2c3c(c1)CCC(=O)N3CCC2	926 s
COc1ccc(-c2nc(CCS(=O)(=O)c3ccc(Cl)cc3)no2)cc1OC	946 s

The next lines start with the values.

RP-LC retention time	Compound
804 s	COc1nccnc1NC1CCN(C(=O)c2ccc(C#N)cc2)CC1
732 s	CC(C)C(=O)Nc1ccc(C2(C(=O)NCCN3CCc4ccccc4C3)CCCCC2)cc1
645 s	Cc1noc(CNC(=O)C2CCN(C(=O)CSc3ccc(F)cc3)CC2)n1
591 s	Cc1oc2ncnc(N3CCCCC3)c2c1C(=O)N1CCN(c2ccccn2)CC1
848 s	N#Cc1cccc(-c2cn3c(n2)N(C(=O)CC2CCCC2)CCC3)c1
1060 s	Cc1c(Cl)cccc1Nc1ccccc1C(=O)O
959 s	CCn1cc(-c2ccc(F)cc2)cc1C(=O)N1CCCC1
685 s	Cc1ccc2[nH]cc(CCNC(=O)C3CCN(c4ccc(N5CCCCC5)nn4)CC3)c2c1
756 s	Cn1cc(-c2cc3n(n2)CCC(=O)N3CC(=O)NCc2ccco2)c2ccccc21
705 s	CC(NC(=O)C1CCN(c2cnc3nccnc3c2)CC1)c1ccccc1 (stereo unspecified)
974 s	COc1ccc(OC)c(NC(=O)C2CCN(S(=O)(=O)c3c(C)nn(-c4ccccc4)c3C)CC2)c1
1070 s	O=c1c2sccc2n(Cc2nc(-c3ccc(Cl)cc3)no2)c(=O)n1-c1ccccc1F
705 s	CCn1cc(-c2ccncc2)cc1C(=O)NCc1cccc(Br)c1
655 s	CCc1nnc2cc(N3CCN(C(=O)Nc4cccc(F)c4)CC3)cnn12
1070 s	C=CCN1C(=O)COc2ccc(-c3csc(NC(=O)c4cccc(Cl)c4)n3)cc21
1140 s	CC(C)Cn1cc(S(=O)(=O)N2CCN(c3ccccc3F)CC2)c2cccnc21
784 s	O=C(Nc1cccc(F)c1)N1CCN(Cc2nc3cc(Cl)ccc3o2)CC1
1030 s	Cc1cc2nn(CC(=O)Nc3ccc(F)cc3Cl)c(=O)n2c(Nc2ccccc2)n1
1130 s	COc1ccc2c(c1)-c1nc(NC(=O)c3ccccc3C)sc1CC2

RP-LC retention time	Compound
647 s	O=C(NCCN1CCOCC1)c1nc2ccccn2c1-c1ccc(Cl)cc1
972 s	O=C(c1cccc(-c2nccnc2N2CCCC2)c1)N1CCN(c2ccccc2)CC1
895 s	CCc1noc(NC(C)=O)c1-c1ccc(OC)c(S(=O)(=O)N2CCN(c3ccccc3)CC2)c1
661 s	CCc1nncn1C1CCN(C(=O)Nc2ccc(F)c(Cl)c2)C1 (stereo unspecified)
724 s	COc1ncc(C(=O)Nc2ccc(F)cc2F)c(C)n1
708 s	C[C@H](NCc1ccc(OCc2cccc(F)c2)cc1)C(N)=O
926 s	CC(C)NC(=O)c1cc(-c2ccc(F)cc2)cn1C
1020 s	O=C(c1cccs1)N1CCN(c2cc(Cl)ccc2Cl)CC1
599 s	O=C(NCc1ccc2c(c1)OCO2)C1CCCN(C(=O)c2cc(-c3ccncc3)n[nH]2)C1 (stereo unspecified)
1030 s	Cc1oc(C2CCC2)nc1C(=O)NCc1cc(F)ccc1F
785 s	COc1ccc(Cl)cc1NC(=O)NCC(c1cccnc1)c1cn(C)c2ccccc12 (stereo unspecified)
764 s	O=C(Cc1csc(-c2ccccc2)n1)Nc1nc(-c2ccc3c(c2)CCCC3)cs1
828 s	O=C(c1cnccn1)N1CCN(c2nc(-c3ccc(Cl)cc3)no2)CC1
809 s	Cn1c(=O)c(N2CCC(NC(=O)Nc3ccc4c(c3)OCO4)CC2)nc2ccccc21
586 s	CCOC(=O)C1CCN(CC(=O)Nc2oc3ccccc3c(=O)c2-c2ccccc2)CC1
750 s	O=C(Cn1nc2c(c1NC(=O)c1c(F)cccc1Cl)CSC2)NCc1ccco1
950 s	O=C(N[C@H]1C[C@@H]2C[C@H]1N(C(=O)Nc1ccc3c(c1)CCC3)C2)c1ccccc1
600 s	Cc1cc(N2CCCC2)n2nc(CN3CCN(c4ccccc4)CC3)nc2n1
716 s	CCn1cnnc1C1CCCCN1S(=O)(=O)c1cccc(F)c1 (stereo unspecified)
